# Measurements as given in patent publication US20250092039A1, “GLUTARIMIDE-CONTAINING PAN-KRAS-MUTANT DEGRADER COMPOUNDS AND USES THEREOF” (Tiger Biotherapeutics Inc., priority 2022, published 2025).
# Experiments:
# KRAS-G12V/RAF1 = KRAS-G12V/RAF1 (Homo sapiens (Human), UniProt P01116, G12V); test: KRAS/RAF1 binding inhibition assay (AlphaScreen)
# Summary of the method: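 IC50 comes from variable-slope nonlinear fits of % inhibition (relative to DMSO) against inhibitor concentration. The AlphaScreen signal tracks the interaction of GppNHp-bound KRAS G12V with the RAF1 RBD after 60 min at 4° C with compound in 2% DMSO final.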
# KRAS G12V = KRAS G12V (Homo sapiens (Human), UniProt P01116, G12V); test: KRAS G12V degradation in SW620 cells (Western blot, DC50); type: cell-based; conditions: 24 hours
# Summary of the method: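 KRAS levels were quantified by fluorescent Western blot as percent of the DMSO control after 24 h of compound exposure at 37° C in homozygous KRAS G12V SW620 cells. A four-parameter variable-slope fit of the dose-response gave the half-maximal degradation concentration.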
# SW620 cells = test: 3D cell growth inhibition of SW620 cells carrying endogenous KRAS G12V mutation (CellTiter-Glo 3D, GI50); type: cell-based; conditions: Homo sapiens, SW-620, 144 h; SW620 cells, 6 days; read-out: SW620 3D cell growth GI50
# Protocol: The following day, the test compound was administered to the cells by using 1000× compound stock solution prepared in DMSO at various concentrations. 1000× compound stock solution was first diluted in culturing medium to 10×, then 10 μL compound medium was added to each well in the cell plates. After administration of the compound, the cells were then incubated at 37° C. for 6 days. Upon completion, the plates were equilibrated at room temperature for approximately 10 minutes. 100 μL of CellTiter-Glo® 3D Reagent (Promega) was added to each well. The plates were then incubated at room temperature for 30 minutes and luminescence was recorded by EnSpire plate reader (PerkinElmer).
# Chain of KRAS G12V (P01116-2 other isoform, or with tags, fused parts or gaps G12V): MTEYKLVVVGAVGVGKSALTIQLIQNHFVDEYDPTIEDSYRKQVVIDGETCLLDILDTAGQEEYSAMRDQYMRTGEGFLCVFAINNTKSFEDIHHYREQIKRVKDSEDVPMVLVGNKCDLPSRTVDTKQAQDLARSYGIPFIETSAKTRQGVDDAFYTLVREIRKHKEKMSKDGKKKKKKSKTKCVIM
# Chain of KRAS-G12V/RAF1 (P01116-2 other isoform, or with tags, fused parts or gaps G12V): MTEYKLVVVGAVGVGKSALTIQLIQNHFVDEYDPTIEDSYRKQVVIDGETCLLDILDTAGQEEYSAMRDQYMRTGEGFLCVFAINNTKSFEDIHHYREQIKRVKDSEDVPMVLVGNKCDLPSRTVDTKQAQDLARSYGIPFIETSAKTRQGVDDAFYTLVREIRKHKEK
IC50 (KRAS-G12V/RAF1),DC50 (KRAS G12V),GI50 (SW620 cells),Structure (SMILES)
< 20 nM,1 to 10 nM,10 to 100 nM,"CCc1c(F)ccc2cc(O)cc(-c3ncc4c(N5CCC[C@@](C)(O)C5)nc(OCC5(CN6CC(N7CC(CN8CCN(c9ccc%10c(c9)CN([C@@H]9CCC(=O)NC9=O)C%10=O)CC8)C7)C6)CC5)nc4c3F)c12 [Compound 9, (R)-3-(5-(4-((1′-((1-(((7-(8-ethyl-7-fluoro-3-hydroxynaphthalen-1-yl)-8-fluoro-4-((R)-3-hydroxy-3-methylpiperidin-1-yl)pyrido[4,3-d]pyrimidin-2-yl)oxy)methyl)cyclopropyl)methyl)-[1,3′-biazetidin]-3-yl)methyl)piperazin-1-yl)-1-oxoisoindolin-2-yl)piperidine-2,6-dione]"
20 to 200 nM,< 1 nM,< 10 nM,"CCc1c(F)ccc2cc(O)cc(-c3ncc4c(N5CCC[C@@](C)(O)C5)nc(OCC5(CN6CCN(CC7CCN(c8ccc9c(c8)CN([C@H]8CCC(=O)NC8=O)C9=O)CC7)CC6)CC5)nc4c3F)c12 [Compound 10, (S)-3-(5-(4-((4-((1-(((7-(8-ethyl-7-fluoro-3-hydroxynaphthalen-1-yl)-8-fluoro-4-((R)-3-hydroxy-3-methylpiperidin-1-yl)pyrido[4,3-d]pyrimidin-2-yl)oxy)methyl)cyclopropyl)methyl)piperazin-1-yl)methyl)piperidin-1-yl)-1-oxoisoindolin-2-yl)piperidine-2,6-dione]"
< 20 nM,1 to 10 nM,10 to 100 nM,"CCc1c(F)ccc2cc(O)cc(-c3ncc4c(N5CCC[C@@](C)(O)C5)nc(OCC5(CN6CC7(CC(CN8CCN(c9ccc%10c(c9)CN([C@@H]9CCC(=O)NC9=O)C%10=O)CC8)C7)C6)CC5)nc4c3F)c12 [Compound 11, (R)-3-(5-(4-((2-((1-(((7-(8-ethyl-7-fluoro-3-hydroxynaphthalen-1-yl)-8-fluoro-4-((R)-3-hydroxy-3-methylpiperidin-1-yl)pyrido[4,3-d]pyrimidin-2-yl)oxy)methyl)cyclopropyl)methyl)-2-azaspiro[3.3]heptan-6-yl)methyl)piperazin-1-yl)-1-oxoisoindolin-2-yl)piperidine-2,6-dione]"
< 20 nM,1 to 10 nM,10 to 100 nM,"CCc1c(F)ccc2cc(O)cc(-c3ncc4c(N5CCC[C@@](C)(O)C5)nc(OCC5(CN6CCC(O)(CN7CCN(c8ccc9c(c8)CN([C@H]8CCC(=O)NC8=O)C9=O)CC7)CC6)CC5)nc4c3F)c12 [Compound 13, (S)-3-(5-(4-((1-((1-(((7-(8-ethyl-7-fluoro-3-hydroxynaphthalen-1-yl)-8-fluoro-4-((R)-3-hydroxy-3-methylpiperidin-1-yl)pyrido[4,3-d]pyrimidin-2-yl)oxy)methyl)cyclopropyl)methyl)-4-hydroxypiperidin-4-yl)methyl)piperazin-1-yl)-1-oxoisoindolin-2-yl)piperidine-2,6-dione]"
< 20 nM,> 100 nM,10 to 100 nM,"CCc1c(F)ccc2cc(O)cc(-c3ncc4c(N5CCC[C@@](C)(O)C5)nc(OCC5(CN6CCC(CN7CCN(c8ccc(C9CCC(=O)NC9=O)cc8)CC7)CC6)CC5)nc4c3F)c12 (stereo partly drawn) [Compound 14, 3-(4-(4-((1-((1-(((7-(8-ethyl-7-fluoro-3-hydroxynaphthalen-1-yl)-8-fluoro-4-((R)-3-hydroxy-3-methylpiperidin-1-yl)pyrido[4,3-d]pyrimidin-2-yl)oxy)methyl)cyclopropyl)methyl)piperidin-4-yl)methyl)piperazin-1-yl)phenyl)piperidine-2,6-dione]"
> 200 nM,> 100 nM,> 100 nM,"CCc1cccc2cc(O)cc(-c3ncc4c(N(C)C5CC5)nc(OCC5(CN6CCC(CN7CCN(c8ccc9c(c8)CN([C@H]8CCC(=O)NC8=O)C9=O)CC7)CC6)CC5)nc4c3F)c12 [Compound 15, (S)-3-(5-(4-((1-((1-(((4-(cyclopropyl(methyl)amino)-7-(8-ethyl-3-hydroxynaphthalen-1-yl)-8-fluoropyrido[4,3-d]pyrimidin-2-yl)oxy)methyl)cyclopropyl)methyl)piperidin-4-yl)methyl)piperazin-1-yl)-1-oxoisoindolin-2-yl)piperidine-2,6-dione]"
20 to 200 nM,> 100 nM,> 100 nM,"CCc1cccc2cc(O)cc(-c3ncc4c(N5CCC[C@@](C)(O)C5)nc(OCC5(CN6CC7(CCN(c8ccc9c(c8)CN(C8CCC(=O)NC8=O)C9=O)CC7)C6)CC5)nc4c3F)c12 (stereo partly drawn) [Compound 16, 3-(5-(2-((1-(((7-(8-ethyl-3-hydroxynaphthalen-1-yl)-8-fluoro-4-((R)-3-hydroxy-3-methylpiperidin-1-yl)pyrido[4,3-d]pyrimidin-2-yl)oxy)methyl)cyclopropyl)methyl)-2,7-diazaspiro[3.5]nonan-7-yl)-1-oxoisoindolin-2-yl)piperidine-2,6-dione]"
20 to 200 nM,> 100 nM,> 100 nM,"CCc1cccc2cc(O)cc(-c3ncc4c(N5CCC[C@@](C)(O)C5)nc(OCC5(CN6CC(CN7CC8(CCN(c9ccc%10c(c9)CN(C9CCC(=O)NC9=O)C%10=O)CC8)C7)C6)CC5)nc4c3F)c12 (stereo partly drawn) [Compound 17, 3-(5-(2-((1-((1-(((7-(8-ethyl-3-hydroxynaphthalen-1-yl)-8-fluoro-4-((R)-3-hydroxy-3-methylpiperidin-1-yl)pyrido[4,3-d]pyrimidin-2-yl)oxy)methyl)cyclopropyl)methyl)azetidin-3-yl)methyl)-2,7-diazaspiro[3.5]nonan-7-yl)-1-oxoisoindolin-2-yl)piperidine-2,6-dione]"
< 20 nM,> 100 nM,10 to 100 nM,"CCc1cccc2cc(O)cc(-c3ncc4c(N5CCC[C@@](C)(O)C5)nc(OCC5(CN6CC[C@@H](CN7CC8(CCN(c9ccc%10c(c9)CN(C9CCC(=O)NC9=O)C%10=O)CC8)C7)C6)CC5)nc4c3F)c12 (stereo partly drawn) [Compound 18, 3-(5-(2-(((R)-1-((1-(((7-(8-ethyl-3-hydroxynaphthalen-1-yl)-8-fluoro-4-((R)-3-hydroxy-3-methylpiperidin-1-yl)pyrido[4,3-d]pyrimidin-2-yl)oxy)methyl)cyclopropyl)methyl)pyrrolidin-3-yl)methyl)-2,7-diazaspiro[3.5]nonan-7-yl)-1-oxoisoindolin-2-yl)piperidine-2,6-dione]"
20 to 200 nM,1 to 10 nM,10 to 100 nM,"CCc1cccc2cc(O)cc(-c3ncc4c(N5CCC[C@@](C)(O)C5)nc(OCC5(CN6CCC(CN7CC8(CCN(c9ccc%10c(c9)CN(C9CCC(=O)NC9=O)C%10=O)CC8)C7)CC6)CC5)nc4c3F)c12 (stereo partly drawn) [Compound 19, 3-(5-(2-((1-((1-(((7-(8-ethyl-3-hydroxynaphthalen-1-yl)-8-fluoro-4-((R)-3-hydroxy-3-methylpiperidin-1-yl)pyrido[4,3-d]pyrimidin-2-yl)oxy)methyl)cyclopropyl)methyl)piperidin-4-yl)methyl)-2,7-diazaspiro[3.5]nonan-7-yl)-1-oxoisoindolin-2-yl)piperidine-2,6-dione]"
> 200 nM,> 100 nM,< 10 nM,"CCc1c(F)ccc2cc(O)cc(-c3ncc4c(N5CCC[C@@](C)(O)C5)nc(OCC5(CN6CCC(C#N)(CN7CCN(c8ccc9c(c8)CN([C@H]8CCC(=O)NC8=O)C9=O)CC7)CC6)CC5)nc4c3F)c12 [Compound 20, 4-((4-(2-((S)-2,6-dioxopiperidin-3-yl)-1-oxoisoindolin-5-yl)piperazin-1-yl)methyl)-1-((1-(((7-(8-ethyl-7-fluoro-3-hydroxynaphthalen-1-yl)-8-fluoro-4-((R)-3-hydroxy-3-methylpiperidin-1-yl)pyrido[4,3-d]pyrimidin-2-yl)oxy)methyl)cyclopropyl)methyl)piperidine-4-carbonitrile]"
< 20 nM,> 100 nM,10 to 100 nM,"CCc1cccc2cc(O)cc(-c3ncc4c(N5CCC[C@@](C)(O)C5)nc(OCC5(CN6CC[C@H](CN7CC8(CCN(c9ccc%10c(c9)CN(C9CCC(=O)NC9=O)C%10=O)CC8)C7)C6)CC5)nc4c3F)c12 (stereo partly drawn) [Compound 22, 3-(5-(2-(((S)-1-((1-(((7-(8-ethyl-3-hydroxynaphthalen-1-yl)-8-fluoro-4-((R)-3-hydroxy-3-methylpiperidin-1-yl)pyrido[4,3-d]pyrimidin-2-yl)oxy)methyl)cyclopropyl)methyl)pyrrolidin-3-yl)methyl)-2,7-diazaspiro[3.5]nonan-7-yl)-1-oxoisoindolin-2-yl)piperidine-2,6-dione]"
20 to 200 nM,< 1 nM,< 10 nM,"CCc1cccc2cc(O)cc(-c3ncc4c(N5CCC[C@@](C)(O)C5)nc(OCC5(CN6CCC(OC7CCN(c8ccc9c(c8)CN(C8CCC(=O)NC8=O)C9=O)CC7)CC6)CC5)nc4c3F)c12 (stereo partly drawn) [Compound 24, 3-(5-(4-((1-((1-(((7-(8-ethyl-3-hydroxynaphthalen-1-yl)-8-fluoro-4-((R)-3-hydroxy-3-methylpiperidin-1-yl)pyrido[4,3-d]pyrimidin-2-yl)oxy)methyl)cyclopropyl)methyl)piperidin-4-yl)oxy)piperidin-1-yl)-1-oxoisoindolin-2-yl)piperidine-2,6-dione]"
